Our source for the EC50 values is patent US10414811B2, “Protease-resistant lipidated GLP-1 analogs” (MEDIMMUNE LIMITED, priority 2015, dated 2019).

Read-outs that look alike come from different tables or passages of the source. Numbered stars: 1 amine (or outer) side, 2 acyl side, 3 side chain; on linkers, the order of the positions; unused ones are H or OH. Square brackets hold non-standard residues; d marks the D form. Side chains are listed from the residue outwards. Peptide text beside a SMILES is read from it. * marks the point of attachment. γGlu = O=C(O)[C@H](CCC(=O)[*:2])N[*:1]; αMeF = C[C@](N)(Cc1ccccc1)C(=O)O; αMeK = C[C@](N)(CCCCN)C(=O)O; Lauroyl = CCCCCCCCCCCC(=O)*; αMeS = C[C@](N)(CO)C(=O)O; AEEA = NCCOCCOCC(=O)O; Aib = CC(C)(N)C(=O)O

Type in all cases: cell-based
Assay [1] concerns the target T1, human GLP-1 receptor (GLP-1R) (Homo sapiens, UniProt P43220).
T1 construct: expressed in transfected cells
As to the kind of experiment: cAMP assay, human GLP-1R cells. The settings on record: tris-lipidated peptides. The gist of the method:
(§1)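 Peptide-stimulated cAMP measured by two-step HTRF after a 30 min room-temperature incubation with receptor-expressing cells (hGLP-1R, hGIPR at 1×10^5 cells/ml; hGCGR at 2×10^5 cells/ml). Duplicate dilutions; EC50 from 4-parameter logistic fit of % Delta F.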

Assay [2] concerns the target T2, human glucose-dependent insulinotropic peptide receptor (GIPR) (Homo sapiens, UniProt P48546).
T2 construct: expressed in transfected cells
T2 sequence (P48546 22-466): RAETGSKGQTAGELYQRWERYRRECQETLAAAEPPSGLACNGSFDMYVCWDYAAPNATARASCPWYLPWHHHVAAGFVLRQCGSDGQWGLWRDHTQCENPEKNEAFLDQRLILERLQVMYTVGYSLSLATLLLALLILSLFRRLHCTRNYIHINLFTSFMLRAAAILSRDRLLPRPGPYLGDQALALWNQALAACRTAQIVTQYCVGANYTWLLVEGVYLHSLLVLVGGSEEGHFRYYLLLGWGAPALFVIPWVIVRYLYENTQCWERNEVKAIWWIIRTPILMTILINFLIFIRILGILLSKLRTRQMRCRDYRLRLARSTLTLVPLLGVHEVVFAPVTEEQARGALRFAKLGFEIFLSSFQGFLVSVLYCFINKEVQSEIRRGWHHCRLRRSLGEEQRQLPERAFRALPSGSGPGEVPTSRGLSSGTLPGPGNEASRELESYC
Description: cAMP assay, human GIPR cells. The settings on record: tris-lipidated peptides; first replicate; read-out: Primary assay EC50 GIP-R (n1). The gist of the method: as §1
Background: Changes in cAMP serve as a functional read-out for many G protein-coupled receptors.

The target in assay [3] is T3, human glucagon receptor (GCGR) (Homo sapiens, UniProt P47871).
T3 construct: expressed in transfected cells
Description: cAMP assay, human GCGR cells. Particulars: tris-lipidated peptides. The gist of the method:
as §1

Setting [4] is: mean of n1 and n2, read-out: Primary assay EC50 Mean pM GLP-1R.
[5] abbreviates: replicate n1, read-out: Primary assay EC50 GLP-1R n1.
Setting [6] is: replicate n2, read-out: Primary assay EC50 GLP-1R n2.
Where [7] appears, read: second replicate, read-out: Primary assay EC50 Gluc-R (n2).
Setting [8] is: first replicate, read-out: Primary assay EC50 Gluc-R (n1).

What is called EC50 is the concentration giving half of the maximal effect.

T3 sequence (P47871 26-477): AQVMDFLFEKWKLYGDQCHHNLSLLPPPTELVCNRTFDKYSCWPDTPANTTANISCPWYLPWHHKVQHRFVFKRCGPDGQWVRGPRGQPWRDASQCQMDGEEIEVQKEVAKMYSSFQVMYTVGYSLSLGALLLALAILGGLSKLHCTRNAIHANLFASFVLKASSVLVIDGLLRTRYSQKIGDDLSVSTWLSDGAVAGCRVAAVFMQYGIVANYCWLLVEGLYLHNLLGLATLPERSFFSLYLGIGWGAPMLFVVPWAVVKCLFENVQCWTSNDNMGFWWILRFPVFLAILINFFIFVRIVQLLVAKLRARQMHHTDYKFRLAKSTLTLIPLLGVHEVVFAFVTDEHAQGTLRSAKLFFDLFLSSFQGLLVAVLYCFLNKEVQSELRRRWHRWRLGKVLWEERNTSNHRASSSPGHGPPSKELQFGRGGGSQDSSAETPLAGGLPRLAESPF
T1 sequence (P43220 24-463): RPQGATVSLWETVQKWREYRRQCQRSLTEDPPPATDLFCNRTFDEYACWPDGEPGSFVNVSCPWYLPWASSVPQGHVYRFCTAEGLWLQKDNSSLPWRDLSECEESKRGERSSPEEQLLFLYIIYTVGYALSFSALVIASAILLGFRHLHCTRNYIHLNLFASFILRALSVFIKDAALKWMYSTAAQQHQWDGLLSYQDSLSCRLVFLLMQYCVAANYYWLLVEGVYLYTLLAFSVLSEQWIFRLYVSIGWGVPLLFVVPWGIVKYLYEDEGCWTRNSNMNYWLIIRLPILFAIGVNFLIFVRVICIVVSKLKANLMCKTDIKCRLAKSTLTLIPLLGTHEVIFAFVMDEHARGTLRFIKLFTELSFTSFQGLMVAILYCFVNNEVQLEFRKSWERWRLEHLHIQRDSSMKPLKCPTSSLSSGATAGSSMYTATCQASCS

In the case of `CCCCCCCCCCCC(=O)N[C@@H](CCC(=O)NCCOCCOCC(=O)NCCOCCOCC(=O)NCCCC[C@H](NC(=O)[C@H](CC(=O)O)NC(=O)[C@H](CO)NC(=O)[C@@H](NC(=O)[C@](C)(Cc1ccccc1)NC(=O)[C@H](CO)NC(=O)CNC(=O)[C@H](CCC(=O)O)NC(=O)C(C)(C)NC(=O)[C@@H](N)Cc1c[nH]cn1)[C@@H](C)O)C(=O)N[C@@H](CO)C(=O)N[C@@H](CO)C(=O)N[C@@H](Cc1ccc(O)cc1)C(=O)N[C@@H](CC(C)C)C(=O)N[C@@H](CCC(=O)O)C(=O)NCC(=O)N[C@@H](CCC(=O)O)C(=O)N[C@@H](C)C(=O)N[C@@H](C)C(=O)N[C@@](C)(CCCCN)C(=O)N[C@@H](CCCCNC(=O)COCCOCCNC(=O)COCCOCCNC(=O)CC[C@H](NC(=O)CCCCCCCCCCC)C(=O)O)C(=O)N[C@@H](Cc1ccccc1)C(=O)N[C@H](C(=O)N[C@@H](CCCCNC(=O)COCCOCCNC(=O)COCCOCCNC(=O)CC[C@H](NC(=O)CCCCCCCCCCC)C(=O)O)C(=O)N[C@@H](Cc1ccccc1)C(=O)N[C@H](C(=O)N[C@H](C(=O)N[C@@H](CCC(=O)O)C(=O)NCC(=O)NCC(N)=O)C(C)C)C(C)C)[C@@H](C)CC)C(=O)O` [compound 442] (H-H[Aib]EGS[αMeF]TSDK([AEEA-AEEA-γGlu-Lauroyl])SSYLEGEAA[αMeK]K([AEEA-AEEA-γGlu-Lauroyl])FIK([AEEA-AEEA-γGlu-Lauroyl])FVVEGG-NH2; N-terminus assumed), the EC50 in assay [1] (setting [4]) was 82 pM; in assay [1] (setting [5]), 60.9 pM; in assay [1] (setting [6]), 103 pM; in assay [2], 19.7 nM; in assay [3] (setting [7]) it was 19.7 nM.
Take `CCCCCCCCCCCC(=O)N[C@@H](CCC(=O)NCCOCCOCC(=O)NCCOCCOCC(=O)NCCCC[C@H](NC(=O)[C@H](CCC(=O)O)NC(=O)[C@H](CC(C)C)NC(=O)[C@H](CCCCNC(=O)COCCOCCNC(=O)COCCOCCNC(=O)CC[C@H](NC(=O)CCCCCCCCCCC)C(=O)O)NC(=O)[C@H](CO)NC(=O)[C@](C)(CO)NC(=O)[C@@H](NC(=O)[C@H](CC(=O)O)NC(=O)[C@H](CO)NC(=O)[C@@H](NC(=O)[C@](C)(Cc1ccccc1)NC(=O)[C@H](CO)NC(=O)CNC(=O)[C@H](CCC(=O)O)NC(=O)C(C)(C)NC(=O)[C@@H](N)Cc1c[nH]cn1)[C@@H](C)O)C(C)C)C(=O)N[C@@H](CCC(=O)O)C(=O)N[C@@H](C)C(=O)N[C@@H](C)C(=O)N[C@@](C)(CCCCN)C(=O)N[C@@H](CCC(=O)O)C(=O)N[C@@H](Cc1ccccc1)C(=O)N[C@H](C(=O)N[C@@H](CCCCNC(=O)COCCOCCNC(=O)COCCOCCNC(=O)CC[C@H](NC(=O)CCCCCCCCCCC)C(=O)O)C(=O)N[C@@H](Cc1ccccc1)C(=O)N[C@H](C(=O)N[C@H](C(=O)N[C@@H](CCC(=O)O)C(=O)NCC(=O)NCC(N)=O)C(C)C)C(C)C)[C@@H](C)CC)C(=O)O` [compound 447] (H-H[Aib]EGS[αMeF]TSDV[αMeS]SK([AEEA-AEEA-γGlu-Lauroyl])LEK([AEEA-AEEA-γGlu-Lauroyl])EAA[αMeK]EFIK([AEEA-AEEA-γGlu-Lauroyl])FVVEGG-NH2; N-terminus assumed): the concentration for a half-maximal effect (EC50) in assay [1] (setting [4]) worked out at 150 pM; in assay [1] (setting [5]), 123 pM; in assay [1] (setting [6]), 176 pM; in assay [2], 19.7 nM; in assay [3] (setting [8]), 19.7 nM.
Take `CCCCCCCCCCCC(=O)N[C@@H](CCC(=O)NCCOCCOCC(=O)NCCOCCOCC(=O)NCCCC[C@H](NC(=O)CNC(=O)[C@H](CCC(=O)O)NC(=O)[C@H](CC(C)C)NC(=O)[C@H](CCCCNC(=O)COCCOCCNC(=O)COCCOCCNC(=O)CC[C@H](NC(=O)CCCCCCCCCCC)C(=O)O)NC(=O)[C@H](CO)NC(=O)[C@](C)(CO)NC(=O)[C@@H](NC(=O)[C@H](CC(=O)O)NC(=O)[C@H](CO)NC(=O)[C@@H](NC(=O)[C@](C)(Cc1ccccc1)NC(=O)[C@H](CO)NC(=O)CNC(=O)[C@H](CCC(=O)O)NC(=O)C(C)(C)NC(=O)[C@@H](N)Cc1c[nH]cn1)[C@@H](C)O)C(C)C)C(=O)N[C@@H](C)C(=O)N[C@@H](C)C(=O)N[C@@](C)(CCCCN)C(=O)N[C@@H](CCC(=O)O)C(=O)N[C@@H](Cc1ccccc1)C(=O)N[C@H](C(=O)N[C@@H](CCCCNC(=O)COCCOCCNC(=O)COCCOCCNC(=O)CC[C@H](NC(=O)CCCCCCCCCCC)C(=O)O)C(=O)N[C@@H](Cc1ccccc1)C(=O)N[C@H](C(=O)N[C@H](C(=O)N[C@@H](CCC(=O)O)C(=O)NCC(=O)NCC(N)=O)C(C)C)C(C)C)[C@@H](C)CC)C(=O)O` [compound 448] (H-H[Aib]EGS[αMeF]TSDV[αMeS]SK([AEEA-AEEA-γGlu-Lauroyl])LEGK([AEEA-AEEA-γGlu-Lauroyl])AA[αMeK]EFIK([AEEA-AEEA-γGlu-Lauroyl])FVVEGG-NH2): the EC50 in assay [1] (setting [4]) was found to be 92.4 pM; in assay [1] (setting [5]), 78.8 pM; in assay [1] (setting [6]), 106 pM; in assay [2] it was 19.9 nM; in assay [3] (setting [7]) it was 19.9 nM.
With `CCCCCCCCCCCC(=O)N[C@@H](CCC(=O)NCCOCCOCC(=O)NCCOCCOCC(=O)NCCCC[C@H](NC(=O)[C@H](CCC(=O)O)NC(=O)CNC(=O)[C@H](CCC(=O)O)NC(=O)[C@H](CC(C)C)NC(=O)[C@H](CCCCNC(=O)COCCOCCNC(=O)COCCOCCNC(=O)CC[C@H](NC(=O)CCCCCCCCCCC)C(=O)O)NC(=O)[C@H](CO)NC(=O)[C@](C)(CO)NC(=O)[C@@H](NC(=O)[C@H](CC(=O)O)NC(=O)[C@H](CO)NC(=O)[C@@H](NC(=O)[C@](C)(Cc1ccccc1)NC(=O)[C@H](CO)NC(=O)CNC(=O)[C@H](CCC(=O)O)NC(=O)C(C)(C)NC(=O)[C@@H](N)Cc1c[nH]cn1)[C@@H](C)O)C(C)C)C(=O)N[C@@H](C)C(=O)N[C@@](C)(CCCCN)C(=O)N[C@@H](CCC(=O)O)C(=O)N[C@@H](Cc1ccccc1)C(=O)N[C@H](C(=O)N[C@@H](CCCCNC(=O)COCCOCCNC(=O)COCCOCCNC(=O)CC[C@H](NC(=O)CCCCCCCCCCC)C(=O)O)C(=O)N[C@@H](Cc1ccccc1)C(=O)N[C@H](C(=O)N[C@H](C(=O)N[C@@H](CCC(=O)O)C(=O)NCC(=O)NCC(N)=O)C(C)C)C(C)C)[C@@H](C)CC)C(=O)O` [compound 449] (H-H[Aib]EGS[αMeF]TSDV[αMeS]SK([AEEA-AEEA-γGlu-Lauroyl])LEGEK([AEEA-AEEA-γGlu-Lauroyl])A[αMeK]EFIK([AEEA-AEEA-γGlu-Lauroyl])FVVEGG-NH2; N-terminus assumed), the EC50 in assay [1] (setting [4]) worked out at 246 pM; in assay [1] (setting [5]) it was 216 pM; in assay [1] (setting [6]), 276 pM; in assay [2], 19.7 nM; in assay [3] (setting [8]), 19.7 nM.
`CCCCCCCCCCCC(=O)N[C@@H](CCC(=O)NCCOCCOCC(=O)NCCOCCOCC(=O)NCCCC[C@H](NC(=O)[C@H](CCC(=O)O)NC(=O)[C@H](CCCCNC(=O)COCCOCCNC(=O)COCCOCCNC(=O)CC[C@H](NC(=O)CCCCCCCCCCC)C(=O)O)NC(=O)[C@H](Cc1ccc(O)cc1)NC(=O)[C@H](CO)NC(=O)[C@](C)(CO)NC(=O)[C@@H](NC(=O)[C@H](CC(=O)O)NC(=O)[C@H](CO)NC(=O)[C@@H](NC(=O)[C@](C)(Cc1ccccc1)NC(=O)[C@H](CO)NC(=O)CNC(=O)[C@H](CCC(=O)O)NC(=O)C(C)(C)NC(=O)[C@@H](N)Cc1c[nH]cn1)[C@@H](C)O)C(C)C)C(=O)N[C@@H](CCC(=O)O)C(=O)N[C@@H](C)C(=O)N[C@@H](C)C(=O)N[C@@](C)(CCCCN)C(=O)N[C@@H](CCC(=O)O)C(=O)N[C@@H](Cc1ccccc1)C(=O)N[C@H](C(=O)N[C@@H](CCCCNC(=O)COCCOCCNC(=O)COCCOCCNC(=O)CC[C@H](NC(=O)CCCCCCCCCCC)C(=O)O)C(=O)N[C@@H](Cc1ccccc1)C(=O)N[C@H](C(=O)N[C@H](C(=O)N[C@@H](CCC(=O)O)C(=O)NCC(=O)NCC(N)=O)C(C)C)C(C)C)[C@@H](C)CC)C(=O)O` [compound 451] (H-H[Aib]EGS[αMeF]TSDV[αMeS]SYK([AEEA-AEEA-γGlu-Lauroyl])EK([AEEA-AEEA-γGlu-Lauroyl])EAA[αMeK]EFIK([AEEA-AEEA-γGlu-Lauroyl])FVVEGG-NH2; N-terminus assumed): the half-maximal effective concentration (EC50) in assay [1] (setting [4]) is 93.4 pM; in assay [1] (setting [5]), 28.8 pM; in assay [1] (setting [6]) it was 158 pM; in assay [2] it was 19.7 nM; in assay [3] (setting [8]), 19.7 nM.
